Test [1] relates to Trypanosoma cruzi. The experiment in a line: Antitrypanosomal activity against Trypanosoma cruzi amastigotes. In kind it is functional, organism-based.
Test [2] addresses T1, Dihydroorotate dehydrogenase (fumarate) (Leishmania major, UniProt Q4QEW7).
T1 sequence (Q4QEW7 whole entry): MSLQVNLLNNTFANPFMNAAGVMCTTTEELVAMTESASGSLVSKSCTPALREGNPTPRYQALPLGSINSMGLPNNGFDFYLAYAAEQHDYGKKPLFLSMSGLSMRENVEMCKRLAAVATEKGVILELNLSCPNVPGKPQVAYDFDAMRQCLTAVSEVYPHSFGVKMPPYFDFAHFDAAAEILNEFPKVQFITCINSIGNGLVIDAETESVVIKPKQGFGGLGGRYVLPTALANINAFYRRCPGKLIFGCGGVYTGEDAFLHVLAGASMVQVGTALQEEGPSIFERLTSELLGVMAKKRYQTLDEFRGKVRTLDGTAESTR
Nature of the test: Inhibition of recombinant oligo-histidine-tagged Leishmania major DHODH expressed in Escherichia coli BL21(DE3) cells using DHO as substrate measured after 60 secs. Particulars: read-out: IC50.

Test [3] relates to Leishmania infantum. Nature of the test: Antileishmanial activity against Leishmania infantum MHOM/BR/1972/LD promastigotes. In kind it is functional, organism-based.
In test [4] the test system is Trypanosoma brucei rhodesiense. Nature of the test: Antitrypanosomal activity against Trypanosoma brucei rhodesiense STIB900 trypomastigotes. In kind it is functional, organism-based.
Test [5] has as its system Leishmania donovani. The experiment in a line: Antileishmanial activity against Leishmania donovani amastigotes. Type of test: functional, organism-based.
The subject of test [6] is Leishmania donovani. Nature of the test: Antileishmanial activity against Leishmania donovani MHOM/ET/67/L82 amastigotes after 72 hrs by Alamar Blue assay. In kind it is functional, organism-based. The settings on record: MHOM/ET/67/L82, 72 h. In general terms: Alamar Blue is a resazurin reagent that responds to reducing activity.
The test system of test [7] is Trypanosoma brucei rhodesiense. The experiment in a line: Antitrypanosomal activity against Trypanosoma brucei rhodesiense STIB900 trypomastigotes after 72 hrs by Alamar Blue assay. In kind it is functional, organism-based. The settings on record: STIB 900, 72 h.
Test [8] deals with Trypanosoma cruzi. Nature of the test: Antitrypanosomal activity against Trypanosoma cruzi Tulahuen C2C4 trypomastigotes infected in rat skeletal myoblasts L-6 cells after 96 hrs by CPRG/Nonidet reagent based spectrophotometric method. In kind it is functional, organism-based. The settings on record: Tulahuen C2C4, L6, 96 h.
The target in test [9] is T2, Dihydroorotate dehydrogenase (fumarate) (Leishmania major) (UniProt Q4QEW7).
T2 sequence (whole entry): T1 sequence (Q4QEW7 whole entry)
The experiment in a line: Binding affinity to Leishmania major DHODH assessed as change in melting temperature at 500 uM by differential scanning fluorimetry-based ThermoFMN assay.

The test system of test [10] is Leishmania amazonensis. The experiment in a line: Antileishmanial activity against Leishmania amazonensis promastigotes. Type of test: functional, organism-based.
In test [11] the target is T2, Dihydroorotate dehydrogenase (fumarate) (Leishmania major). The experiment in a line: Binding affinity to Leishmania major DHODH assessed as change in melting temperature at 100 uM by SYPRO orange dye-based differential scanning fluorimetry. (Differential scanning fluorimetry follows unfolding on heating by fluorescence.)
For test [12] the target is unchanged. The experiment in a line: Binding affinity to Leishmania major DHODH assessed as change in melting temperature at 1000 uM by differential scanning fluorimetry-based ThermoFMN assay.
For test [13] the target is unchanged. Nature of the test: Binding affinity to Leishmania major DHODH assessed as change in melting temperature at 100 uM by differential scanning fluorimetry-based ThermoFMN assay.
Test [14] shares this target. Nature of the test: Binding affinity to Leishmania major DHODH assessed as change in melting temperature at 1000 uM by SYPRO orange dye-based differential scanning fluorimetry.
Test [15] shares this target. Nature of the test: Inhibition of recombinant oligo-histidine-tagged Leishmania major DHODH expressed in Escherichia coli BL21(DE3) cells at 100 uM using DHO as substrate measured after 60 secs.
Test [16] shares this target. The experiment in a line: Binding affinity to Leishmania major DHODH assessed as change in melting temperature at 500 uM by SYPRO orange dye-based differential scanning fluorimetry.
Test [17] concerns the target Dihydroorotate dehydrogenase (quinone), mitochondrial (Homo sapiens) (UniProt Q02127). Nature of the test: Inhibition of human DHODH at 100 uM.
Test [18] concerns Leishmania braziliensis. Nature of the test: Antileishmanial activity against Leishmania braziliensis promastigotes. Type of test: functional, organism-based.
The test system of test [19] is Trypanosoma cruzi. Nature of the test: Antitrypanosomal activity against Trypanosoma cruzi Y amastigotes after 24 hrs by Gential violet staining-based assay. Type of test: functional, organism-based.
For test [20], the system named is Leishmania donovani. The experiment in a line: Antileishmanial activity against Leishmania donovani MHOM/ET/67/L82 axenic amastigotes after 72 hrs by resazurin dye-based fluorescence assay. Type of test: functional, organism-based. Particulars: MHOM/ET/67/L82, 72 h.
Test [21] has as its system Trypanosoma cruzi. Nature of the test: Antitrypanosomal activity against Trypanosoma cruzi Tulahuen trypomastigotes after 96 hrs by CPRG/Nonidet reagent based spectrophotometric method. Type of test: functional, organism-based.
Test [22] deals with Trypanosoma brucei rhodesiense. Nature of the test: Antitrypanosomal activity against Trypanosoma brucei rhodesiense STIB 900 trypomastigotes after 72 hrs by resazurin dye-based fluorescence assay. In kind it is functional, organism-based. The settings on record: STIB 900, 72 h.
Test [23] has as its system Trypanosoma cruzi. The experiment in a line: Antitrypanosomal activity against Trypanosoma cruzi Y amastigotes infected in Swiss albino mouse measured on day 7 post infection by Gential violet staining-based assay. Type of test: functional, organism-based. Particulars: 168 h.
Test [24] concerns Leishmania major. Nature of the test: Antileishmanial activity against Leishmania major promastigotes. In kind it is functional, organism-based.
For test [25], the system named is Leishmania major. Nature of the test: Antileishmanial activity against Leishmania major amastigotes. Type of test: functional, organism-based.
For test [26], the system named is Trypanosoma brucei rhodesiense. The experiment in a line: Antitrypanosomal activity against Trypanosoma brucei rhodesiense STIB 900 trypomastigotes after 72 hrs by Alamar Blue assay. Particulars: STIB 900, 72 h. Type of test: functional, organism-based.
Test [27] has as its system Leishmania amazonensis. Nature of the test: Antileishmanial activity against Leishmania amazonensis IFLA/BR/1967/PH-8 promastigotes after 48 hrs by MTT assay. In kind it is functional, organism-based. The settings on record: IFLA/BR/1967/PH-8, 48 h. For orientation: Formazan colour is commonly taken as a measure of viable cells.
In test [28] the test system is Leishmania amazonensis. Nature of the test: Antileishmanial activity against Leishmania amazonensis. In kind it is functional, organism-based.
The test system of test [29] is Leishmania braziliensis. Nature of the test: Antileishmanial activity against Leishmania braziliensis. Type of test: functional, organism-based.
Test [30] deals with Leishmania donovani. Nature of the test: Antileishmanial activity against Leishmania donovani. In kind it is functional, organism-based.
Test [31] concerns Leishmania infantum. Nature of the test: Antileishmanial activity against Leishmania infantum MHOM/MA(BE)/6 promastigotes infected in mouse J774A.1 cells after 120 hrs by Giemsa staining-based assay. In kind it is functional, organism-based. The settings on record: MHOM/MA(BE)/6, J774.A1, 120 h.
Test [32] deals with Leishmania infantum. The experiment in a line: Antileishmanial activity against Leishmania infantum MHOM/MA(BE)/6 amastigotes infected in mouse J774A.1 cells after 120 hrs by Giemsa staining-based assay. Type of test: functional, organism-based. Particulars: MHOM/MA(BE)/6, J774.A1, 120 h.

Sequence of Dihydroorotate dehydrogenase (quinone), mitochondrial (Homo sapiens) (Q02127 whole entry): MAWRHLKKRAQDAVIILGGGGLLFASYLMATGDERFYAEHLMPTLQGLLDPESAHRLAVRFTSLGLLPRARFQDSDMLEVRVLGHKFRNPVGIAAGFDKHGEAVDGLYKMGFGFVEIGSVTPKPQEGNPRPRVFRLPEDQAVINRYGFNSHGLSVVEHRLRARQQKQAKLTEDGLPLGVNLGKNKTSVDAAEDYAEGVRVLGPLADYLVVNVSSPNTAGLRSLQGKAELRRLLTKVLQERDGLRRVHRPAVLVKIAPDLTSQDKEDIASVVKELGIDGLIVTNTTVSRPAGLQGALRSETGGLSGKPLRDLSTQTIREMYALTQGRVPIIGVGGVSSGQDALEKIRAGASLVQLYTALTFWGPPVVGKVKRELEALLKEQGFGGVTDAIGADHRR

Consider `C=C1C(=O)O[C@@H]2/C=C(/CO)C3=CC(=O)[C@@](C)(C[C@@H](OC(=O)/C(C)=C\C)[C@@H]12)O3`, for which the IC50 – broadly, the concentration that gives 50% inhibition – in the test with Trypanosoma cruzi [1] is 1.75 µM; in [2], 653 µM; in the test on Leishmania infantum [3] it was 28 µM; in [4], 0.07 µM; in the test on Leishmania donovani [5], 5.14 µM.

For `CC[C@H](CC[C@H](C)[C@H]1CC[C@H]2[C@@H]3CC=C4C[C@@H](O)CC[C@]4(C)[C@H]3CC[C@]12C)C(C)C`, the IC50 in [2] is 414 µM; with Leishmania donovani [6] it was 27.8 µM; in test [7], 86.1 µM; with Trypanosoma cruzi [8] it was 35.4 µM.

Turning to `CC(=O)OCC1=C2[C@@H](OC(C)=O)C[C@@](C)(OC(C)=O)C(=O)CC[C@@]3(C)O[C@@H]3[C@H]2OC1=O`, the IC50 was 30.9 µM in test [2], 46.1 µM in the test with Leishmania amazonensis [10] and 27.9 µM in the test with Leishmania braziliensis [18]. In addition, the ΔTm (as a rule, the shift of the melting midpoint relative to a reference) was -0.41 °C in test [9]; -0.27 °C in test [11]; -0.7 °C in [12]; -0.21 °C in test [13]; -0.64 °C in [14]; -0.47 °C in test [16]. Also, the inhibition (usually the change of the read-out against control, counted positive when it falls) was determined as 41% in [15] and 0% in test [17].

As for `C=C[C@]1(C)C=C2CC[C@H]3[C@@](C)(CCC[C@]3(C)C(=O)O)[C@@H]2CC1`, the IC50 is 386 µM in the test with Trypanosoma cruzi [19] and 1320 µM in test [2].

`C=C1C(=O)O[C@@H]2/C=C(\CO)CC/C=C(\C)C[C@H](OC(=O)C(=C)[C@@H](O)CO)[C@@H]12`: the IC50 came out at 361 µM in [2], 15.2 µM with Leishmania donovani [20], 16.8 µM in the test on Trypanosoma cruzi [21] and 1.3 µM in [22].

For `COc1cc(O)c2c(=O)cc(-c3ccc(OC)c(OC)c3)oc2c1`, the IC50 (in test [2]; in the test on Trypanosoma cruzi [23]) was 217 µM in each case.

As to `C[C@@H]1CC[C@H]2[C@@H](C)C(=O)O[C@@H]3O[C@@]4(C)CC[C@@H]1[C@]32OO4` [ARTEMISININ], the IC50 in [2] turned out to be 172 µM; in the test with Leishmania major [24], 0.75 µM; with Leishmania major [25], 0.3 µM. Further, the ΔTm in test [9] was -0.35 °C; in test [11] it was -0.14 °C; in test [12], -0.4 °C; in test [13] it was -0.13 °C; in [14], -0.52 °C; in [16], -0.22 °C. In addition, the inhibition in [15] worked out at 44%; in test [17], 0%.

As to `Oc1cc(O)c2c(c1)O[C@H](c1ccc(O)c(O)c1)[C@@H](O)C2` [CIANIDANOL], the IC50 was 98.3 µM in [2]; 103 µM in the test with Leishmania donovani [6]; 50 µM in [26]; 153 µM in the test on Leishmania amazonensis [27]; 310 µM in the test with Trypanosoma cruzi [8]. Also, the results for the inhibition in test [15] and in [17] were 52% and 38%, respectively.

As for `O=c1ccc2ccccc2o1` [COUMARIN], the IC50 in test [2] was 642 µM; with Leishmania amazonensis [28], 342 µM; in the test on Leishmania braziliensis [29], 342 µM; in the test on Leishmania donovani [30] it was 342 µM.

As for `C/C=C(/C)C(=O)O[C@H]1[C@H](OC(C)=O)[C@]2(CO)[C@H](O)C[C@]3(C)C(=CC[C@@H]4[C@@]5(C)CC[C@H](O[C@@H]6O[C@H](C(=O)O)[C@@H](O[C@@H]7O[C@H](CO)[C@@H](O)[C@H](O)[C@H]7O)[C@H](O)[C@H]6O[C@@H]6O[C@H](CO)[C@@H](O)[C@H](O)[C@H]6O)[C@](C)(CO)[C@@H]5CC[C@]43C)[C@@H]2CC1(C)C` [ESCIN IB], the values for the IC50 (in [2]; in the test with Leishmania infantum [31]; with Leishmania infantum [32]) were 478 µM, above 14.1 µM and 1.37 µM, respectively.

These data come from ChEMBL document CHEMBL4261582, “Natural products as inhibitors of Leishmania major dihydroorotate dehydrogenase” (Eur J Med Chem, 2018).
